The text below walks through data of ChEMBL document CHEMBL3217509, “Discovery of an HIV integrase inhibitor with an excellent resistance profile” (Medchemcomm, 2013).

Data set [1] in a line: Inhibition of DNA polymerase beta (unknown origin). The arrangement: species or system Homo sapiens.
A short description of data set [2]: Inhibition of DNA polymerase alpha (unknown origin). The arrangement: species or system Homo sapiens.
A short description of data set [3]: Intrinsic clearance in human liver microsomes assessed per mg of protein by LC-MS/MS analysis. The class given is ADME. The following applies: read-out: CLH.
In data set [4] the test system is Human immunodeficiency virus 1. The data set can be described thus: Antiviral activity against HIV1 NL4-3 infected in human MT2 cells after 3 days by human JC53BL cell-based beta-galactosidase reporter gene assay. The class given is functional, organism-based. The following applies: Human immunodeficiency virus 1, NL4-3, JC53BL, 72 h.
Data set [5] can be described thus: Intrinsic clearance in human liver microsomes assessed per mg of protein by LC-MS/MS analysis in presence of UDPGA. The format is ADME. The following applies: read-out: CLH.
A short description of data set [6]: Intrinsic clearance in human hepatocytes assessed assessed per million of cells by LC-MS/MS analysis. The class given is ADME, cell-based, Hepatocyte. To be noted: read-out: CLH.
Data set [7] is described as follows: Aqueous solubility of the compound at pH 7.4. To be noted: buffer. The class given is physicochemical.
Data set [8] in a line: Inhibition of DNA polymerase gamma (unknown origin). Further details: species or system Homo sapiens.

Bounds are passed on as bounds.

In the case of `Cc1cn([C@H]2CC[C@@H](COP(=O)(O)OP(=O)(O)OP(=O)(O)O)O2)c(=O)[nH]c1=O`, the IC50 turned out to be 1960 nM in data set [1] and 7170 nM in data set [2].
For the compound `Cc1nc2c(ncc3c2ccn3Cc2ccc(F)cc2)c(=O)n1O`, the microsomal CLint was determined as 21.3 µL/min/mg in data set [3] and 80.2 µL/min/mg in data set [5]. This compound gave an IC50 in data set [4] of 451 nM. For the same compound, the hepatocyte CLint in data set [6] was 14.1 µL/min/1e6 cells.
With `COCCNC(=O)c1c(O)c2ncc3c(ccn3Cc3ccc(F)cc3)c2[nH]c1=O`, the microsomal CLint in data set [3] was 32 µL/min/mg; in data set [5] it was 3.5 µL/min/mg. Also, the solubility in data set [7] is under 1 µg/mL. In data set [4], this compound registered a concentration for half-maximal inhibition (IC50) of 6 nM. In addition, in data set [6], the hepatocyte CLint is 5.9 µL/min/1e6 cells.
On to `COc1cc(Cn2ccc3c4c(ncc32)C(=O)N(O)CC4)ccc1F`, for which the microsomal CLint in data set [3] is 12.5 µL/min/mg; in data set [5], 18 µL/min/mg. The compound further showed a half-inhibitory concentration (IC50) in data set [4] of 19 nM. The hepatocyte CLint in data set [6] is 34.3 µL/min/1e6 cells.
For the compound `O=C(NCCO)c1c(O)c2ncc3c(ccn3Cc3ccc(F)cc3)c2[nH]c1=O`, the microsomal CLint in data set [3] is 17.3 µL/min/mg; in data set [5], under 3.5 µL/min/mg. The same compound yielded a solubility in data set [7] of under 1 µg/mL. The compound further gave an IC50 in data set [4] of 1 nM. Further, the hepatocyte CLint in data set [6] came out at 2.9 µL/min/1e6 cells.
For the compound `Cc1cn([C@H]2C[C@H](N=[N+]=[N-])[C@@H](COP(=O)(O)OP(=O)(O)OP(=O)(O)O)O2)c(=O)[nH]c1=O` [ZIDOVUDINE TRIPHOSPHATE], the IC50 in data set [1] was 1960 nM; in data set [8] it was 3700 nM; in data set [2], 7170 nM.
In the case of `COc1cc(F)ccc1Cn1ccc2c3c(ncc21)C(=O)N(O)C(C)(C)C3`, the microsomal CLint in data set [3] is 17 µL/min/mg; in data set [5] it was 19.7 µL/min/mg. In data set [4], this compound registered an IC50 of 3.9 nM. In addition, the hepatocyte CLint in data set [6] was determined as 37.7 µL/min/1e6 cells.
With `CCOc1cc(F)ccc1Cn1ccc2c3c(ncc21)C(=O)N(O)CC3`, the microsomal CLint in data set [3] was under 8 µL/min/mg; in data set [5] it was 5 µL/min/mg. In addition, the half-inhibitory concentration (IC50) in data set [4] was 4.1 nM. Also, in data set [6], the hepatocyte CLint was found to be 23.2 µL/min/1e6 cells.
Regarding `O=C1Nc2ccc(Cl)cc2[C@@](C#CC2CC2)(C(F)(F)F)O1` [EFAVIRENZ], the values for the half-inhibitory concentration (IC50) in data set [1], in data set [8] and in data set [2] were over 50000 nM, at most 50000 nM and over 50000 nM, respectively.
Turning to `O=C1c2ncc3c(ccn3Cc3ccc(F)cc3)c2CCN1O`, the microsomal CLint in data set [3] was 19.2 µL/min/mg; in data set [5], 24 µL/min/mg. Besides, the hepatocyte CLint in data set [6] turned out to be 29.6 µL/min/1e6 cells.
Take `COc1cc(F)ccc1Cn1ccc2c3c(ncc21)C(=O)N(O)C3(C)C`: the microsomal CLint in data set [3] is under 8 µL/min/mg; in data set [5], 4.8 µL/min/mg. The compound further returned an IC50 in data set [4] of over 7480 nM. The hepatocyte CLint in data set [6] was determined as 28.8 µL/min/1e6 cells.
The like results for `O=C1c2ncc3c(ccn3Cc3ccc(F)cc3OC(F)F)c2CCN1O` were, in that order, 15.4 µL/min/mg, 5.8 µL/min/mg, 5 nM and 17 µL/min/1e6 cells.
Consider `CC1(C)CN(O)C(=O)c2ncc3c(ccn3Cc3ccc(F)cc3)c21`, for which it took 1 nM to reach half-maximal inhibition in data set [4] (IC50). Also, in data set [5], the microsomal CLint turned out to be 170 µL/min/mg. The hepatocyte CLint in data set [6] amounted to 64.7 µL/min/1e6 cells.
As for `C[C@@]1(CO)[C@H](O)CC[C@@]2(C)[C@H]1CC[C@H]1C[C@@H]3C[C@@]12CC[C@]3(O)CO` [APHIDICOLIN], the figures for the half-inhibitory concentration (IC50) in data set [1] and in data set [2] were 1960 nM and 7170 nM, respectively.
